Patent publication US8916565B2, “Pyrrolopyrazine-spirocyclic piperidine amides as modulators of ion channels” (priority 2011, dated 2014)

molecular target: human NaV subtype, like NaV 1.7 (Homo sapiens, UniProt Q15858); test: E-VIPR optical membrane potential assay with electrical stimulation; format: cell-based; conditions: active against one or more sodium channels; Table 3 does not name the assay or NaV subtype; read-out: Binned Activity Data (IC50)
Sequence (Q15858 whole entry): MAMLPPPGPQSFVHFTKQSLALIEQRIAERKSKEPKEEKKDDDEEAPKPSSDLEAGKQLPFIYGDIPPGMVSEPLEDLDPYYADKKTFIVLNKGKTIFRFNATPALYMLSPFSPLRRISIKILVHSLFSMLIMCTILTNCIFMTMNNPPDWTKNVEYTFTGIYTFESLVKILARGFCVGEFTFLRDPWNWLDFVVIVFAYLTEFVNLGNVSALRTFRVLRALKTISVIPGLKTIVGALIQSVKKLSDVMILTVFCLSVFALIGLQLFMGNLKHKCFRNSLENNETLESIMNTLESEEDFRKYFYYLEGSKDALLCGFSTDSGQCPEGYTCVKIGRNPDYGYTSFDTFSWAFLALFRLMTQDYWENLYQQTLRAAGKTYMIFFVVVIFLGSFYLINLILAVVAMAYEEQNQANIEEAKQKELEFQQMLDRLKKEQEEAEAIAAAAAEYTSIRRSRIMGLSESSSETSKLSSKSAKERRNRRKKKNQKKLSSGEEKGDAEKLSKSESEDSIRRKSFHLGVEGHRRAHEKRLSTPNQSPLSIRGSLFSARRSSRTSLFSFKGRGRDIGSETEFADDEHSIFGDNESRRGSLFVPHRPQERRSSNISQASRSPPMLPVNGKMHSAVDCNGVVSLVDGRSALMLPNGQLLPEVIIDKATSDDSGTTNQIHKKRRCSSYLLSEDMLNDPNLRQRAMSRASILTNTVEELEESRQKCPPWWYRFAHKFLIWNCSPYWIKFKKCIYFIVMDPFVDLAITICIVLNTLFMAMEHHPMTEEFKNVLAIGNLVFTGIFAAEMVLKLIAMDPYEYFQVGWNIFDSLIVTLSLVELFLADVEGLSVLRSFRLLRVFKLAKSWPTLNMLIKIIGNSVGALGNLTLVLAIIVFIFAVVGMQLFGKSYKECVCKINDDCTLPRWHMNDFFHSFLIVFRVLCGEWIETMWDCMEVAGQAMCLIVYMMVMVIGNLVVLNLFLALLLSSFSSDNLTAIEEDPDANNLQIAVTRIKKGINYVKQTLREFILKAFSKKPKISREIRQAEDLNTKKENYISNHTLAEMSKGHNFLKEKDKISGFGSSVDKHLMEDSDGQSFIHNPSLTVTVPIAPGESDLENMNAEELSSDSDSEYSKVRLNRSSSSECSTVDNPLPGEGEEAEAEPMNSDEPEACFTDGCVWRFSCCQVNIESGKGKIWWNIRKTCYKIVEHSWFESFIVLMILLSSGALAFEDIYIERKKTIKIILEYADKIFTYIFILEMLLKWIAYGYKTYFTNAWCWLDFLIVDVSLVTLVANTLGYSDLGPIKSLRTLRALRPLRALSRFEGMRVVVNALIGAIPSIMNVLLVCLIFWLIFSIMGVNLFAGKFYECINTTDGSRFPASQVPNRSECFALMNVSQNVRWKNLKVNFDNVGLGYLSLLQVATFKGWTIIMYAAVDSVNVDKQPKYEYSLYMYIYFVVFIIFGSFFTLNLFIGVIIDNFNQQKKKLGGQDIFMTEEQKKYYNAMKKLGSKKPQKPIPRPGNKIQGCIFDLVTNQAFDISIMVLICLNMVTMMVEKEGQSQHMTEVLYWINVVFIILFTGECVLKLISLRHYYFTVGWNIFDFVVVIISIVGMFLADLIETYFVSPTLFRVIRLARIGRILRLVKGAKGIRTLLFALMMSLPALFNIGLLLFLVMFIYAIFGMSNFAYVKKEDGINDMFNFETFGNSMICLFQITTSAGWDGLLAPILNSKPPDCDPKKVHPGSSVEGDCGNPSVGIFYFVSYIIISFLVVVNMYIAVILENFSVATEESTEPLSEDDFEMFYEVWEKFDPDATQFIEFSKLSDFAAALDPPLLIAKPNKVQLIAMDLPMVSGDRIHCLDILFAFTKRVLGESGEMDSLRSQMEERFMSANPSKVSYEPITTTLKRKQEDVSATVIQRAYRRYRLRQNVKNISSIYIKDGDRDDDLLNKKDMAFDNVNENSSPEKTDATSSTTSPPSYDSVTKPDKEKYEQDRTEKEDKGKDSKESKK

Row | SMILES | IC50 [nM]
1 | COc1ccc(C(=O)N2CCC3(CC2)c2ccc(C(=O)C(F)(F)F)n2C[C@H](C)N3C)cc1C(F)(F)F [Compound 726] | ≤ 2000
2 | COc1cc(C(=O)N2CCC3(CC2)c2ccc(C(C)=O)n2CCN3C)ccc1COCC(F)(F)F [Compound 470] | ≤ 2000
3 | CC(=O)c1ccc2n1CCN(C)C21CCN(C(=O)c2ccc(C(C)(C)O)c(C)c2)CC1 [Compound 456] | 2000 to 5000
4 | COc1cc(C(=O)N2CCC3(CC2)NCC(=O)n2c(C(F)(F)F)ccc23)ccc1OC(C)C [Compound 4] | > 5000
5 | CC(=O)c1cc2n(c1)CC(C)(C)NC21CCN(C(=O)c2ccc(C3CCCCC3)cc2)CC1 [Compound 344] | 2000 to 5000
6 | CCCOc1ccc(C(=O)N2CCC3(CC2)c2ccc(C(=O)C(F)(F)F)n2CCN3C)cc1 [Compound 127] | ≤ 2000
7 | CNS(=O)(=O)c1ccc(C(=O)N2CCC3(CC2)c2c(F)cc(C(F)(F)F)n2CCN3C)cc1 [Compound 415] | ≤ 2000
8 | C[C@H]1Cn2c(C(=O)C(F)(F)F)ccc2C2(CCN(C(=O)c3ccc(C(C)(C)O)cc3)CC2)N1C [Compound 349] | ≤ 2000
9 | CN1CCn2c(Cl)ccc2C12CCN(C(=O)c1ccc(S(=O)(=O)C(F)F)cc1)CC2 [Compound 670] | > 5000
10 | Cc1cc(C(=O)N2CCC3(CC2)c2ccc(C(=O)C(F)(F)F)n2CCN3C)ccc1F [Compound 376] | 2000 to 5000
11 | CC(C)Oc1ccc(C(=O)N2CCC3(CC2)c2ccc(C(=O)C(F)(F)F)n2CCN3C)cc1C(F)(F)F [Compound 676] | ≤ 2000
12 | Cc1cc(C(=O)N2CCC3(CC2)c2ccc(C(=O)C(C)C)n2CCN3C)ccc1O [Compound 140] | ≤ 2000
13 | COc1ccc(C(=O)N2CCC3(CC2)c2ccc(C(=O)C(F)(F)F)n2CCN3C)cc1OC(C)C [Compound 455] | ≤ 2000
14 | Cc1cc(C(=O)N2CCC3(CC2)c2cccn2CCN3C)ccc1OC(C)C [Compound 430] | > 5000
15 | CC1(C)Cn2c(C(=O)C(F)(F)F)ccc2C2(CCN(C(=O)c3ccc(-c4ccccc4)cn3)CC2)N1 [Compound 707] | ≤ 2000
16 | CC(=O)c1ccc2n1CCN(C)C21CCN(C(=O)c2ccc(OCC(C)(C)O)c(C)c2)CC1 [Compound 681] | 2000 to 5000
17 | CCCCc1ccc(C(=O)N2CCC3(CC2)c2ccc(Cl)n2CCN3C)cc1 [Compound 275] | 2000 to 5000
18 | C[C@H]1Cn2c(C(=O)C(F)(F)F)ccc2C2(CCN(C(=O)c3ccccc3OC(F)F)CC2)N1C [Compound 552] | ≤ 2000
19 | CN1CCn2c(C(F)(F)F)ccc2C12CCN(C(=O)c1ccc(OCC(C)(C)O)cc1)CC2 [Compound 637] | 2000 to 5000
20 | COC(=O)N1CCn2c(C(F)(F)F)ccc2C12CCN(C(=O)c1ccc(OC(C)C)c(OC)c1)CC2 [Compound 259] | ≤ 2000
21 | COc1ccc(C(=O)N2CCC3(CC2)NC(C)(C)Cn2c(C(C)=O)ccc23)cc1C [Compound 613] | > 5000
22 | CC(C)(O)c1ccc(C(=O)N2CCC3(CC2)c2ccc(C(F)(F)F)n2CCN3C2CC2)cc1 [Compound 451] | > 5000
23 | Cc1cc(C(=O)N2CCC3(CC2)c2ccc(Cl)n2CCN3C)ccc1OC(C)C [Compound 710] | ≤ 2000
24 | COc1cc(C(=O)N2CCC3(CC2)c2ccc(C(=O)C(F)(F)F)n2CCN3C)ccc1OC(C)C [Compound 315] | ≤ 2000
25 | CC(C)C(=O)c1ccc2n1CCN(C)C21CCN(C(=O)c2ccc(C(C)(C)O)c(F)c2)CC1 [Compound 183] | ≤ 2000

Row | SMILES | IC50 [nM]
26 | CN1CCn2c(C(=O)C(F)(F)F)ccc2C12CCN(C(=O)c1ccc(S(=O)(=O)C3CC3)cc1)CC2 [Compound 496] | 2000 to 5000
27 | CCOc1cc(C(=O)N2CCC3(CC2)NCCn2c(C(F)(F)F)ccc23)ccc1OC [Compound 618] | > 5000
28 | CC(C)Nc1ncccc1C(=O)N1CCC2(CC1)c1ccc(C(F)(F)F)n1CCN2C [Compound 718] | 2000 to 5000
29 | COc1ccc(C(=O)N2CCC3(CC2)NC(C)(C)Cn2c(C(=O)C(F)(F)F)ccc23)c(C)c1 [Compound 738] | ≤ 2000
30 | CN1CCn2c(C(F)(F)F)cc(F)c2C12CCN(C(=O)c1ccc(S(=O)(=O)NC3CC3)cc1)CC2 [Compound 666] | ≤ 2000
31 | CNS(=O)(=O)c1ccc(C(=O)N2CCC3(CC2)c2ccc(C(=O)C(C)(C)C)n2CCN3C)cc1C [Compound 561] | ≤ 2000
32 | COc1nc(C(=O)N2CCC3(CC2)c2c(Cl)cc(C(F)(F)F)n2CCN3C)ccc1OC(C)C [Compound 379] | ≤ 2000
33 | COc1ccc(C(=O)N2CCC3(CC2)c2ccc(C(=O)C(F)(F)F)n2CCN3C)cc1C [Compound 663] | ≤ 2000
34 | COc1ccc(C(=O)N2CCC3(CC2)c2ccc(C(=O)C(F)(F)F)n2C[C@H](C)N3C)cc1Cl [Compound 608] | ≤ 2000
35 | COc1cc(C(=O)N2CCC3(CC2)c2ccc(C(F)(F)F)n2CCN3C)ccc1OCCOC(F)(F)F [Compound 168] | ≤ 2000
36 | CCN(CC)c1ncccc1C(=O)N1CCC2(CC1)c1ccc(C(F)(F)F)n1CCN2C [Compound 684] | > 5000
37 | CC(=O)c1ccc2n1CCN(C)C21CCN(C(=O)c2ccc(C3CC3)cc2)CC1 [Compound 425] | > 5000
38 | COc1cc(C(=O)N2CCC3(CC2)c2c(F)cc(C(F)(F)F)n2CCN3C)ccc1OC(C)(C)C [Compound 483] | ≤ 2000
39 | CN1CCn2c(C(F)(F)F)ccc2C12CCN(C(=O)c1ccnc(N3CCCCC3)c1)CC2 [Compound 581] | 2000 to 5000
40 | COc1ccc(C(=O)N2CCC3(CC2)c2ccc(C(=O)C(F)(F)F)n2C[C@@H](C)N3C)cc1C [Compound 432] | 2000 to 5000
41 | COc1cc(C(=O)N2CCC3(CC2)c2ccc(C(F)(F)F)n2CCN3CC(F)(F)F)ccc1OC(C)C [Compound 59] | ≤ 2000
42 | COc1ccc(C(=O)N2CCC3(CC2)c2ccc(C(=O)C(C)(C)C)n2CCN3C)c(F)c1 [Compound 578] | 2000 to 5000
43 | CC(C)c1ccc(C(=O)N2CCC3(CC2)c2ccc(Cl)n2CCN3C)cc1 [Compound 221] | > 5000
44 | CN1CCn2c(C(=O)C(F)(F)F)ccc2C12CCN(C(=O)c1ccc(COCC(F)(F)F)cc1)CC2 [Compound 553] | ≤ 2000
45 | CC(=O)c1ccc2n1CCN(C)C21CCN(C(=O)c2ccc(C3(O)CCCC3)cc2)CC1 [Compound 309] | > 5000
46 | COCCOc1ccc(C(=O)N2CCC3(CC2)c2c(F)cc(C(F)(F)F)n2CCN3C)cc1OC [Compound 187] | ≤ 2000
47 | CC1CCN(S(=O)(=O)c2ccc(C(=O)N3CCC4(CC3)c3ccc(C(=O)C(F)(F)F)n3CCN4C)cc2)CC1 [Compound 600] | ≤ 2000
48 | CC1(C)Cn2c(C(=O)C(F)(F)F)ccc2C2(CCN(C(=O)c3ccc(O)c(Cl)c3)CC2)N1 [Compound 491] | ≤ 2000
49 | CC(C)Oc1ccc(C(=O)N2CCC3(CC2)c2ccc(C(F)(F)F)n2CCN3C)nc1 [Compound 22] | > 5000
50 | COc1cc(C(=O)N2CCC3(CC2)c2c(Br)cc(C(F)(F)F)n2CCN3C)ccc1OC(C)C [Compound 348] | ≤ 2000

Row | SMILES | IC50 [nM]
51 | Cc1cc(C(=O)N2CCC3(CC2)c2ccc(C#N)n2CCN3C)ccc1OC(C)C [Compound 394] | 2000 to 5000
52 | Cc1cc(C(=O)N2CCC3(CC2)c2ccc(C(=O)C(C)C)n2CCN3C)ccc1OC(C)C [Compound 182] | ≤ 2000
53 | COc1cc(C(=O)N2CCC3(CC2)c2ccc(Cl)n2CCN3C)ccc1OC(C)C [Compound 234] | > 5000
54 | CCCCCc1ccc(C(=O)N2CCC3(CC2)c2ccc(C(C)=O)n2CCN3C)cc1 [Compound 92] | ≤ 2000
55 | CN1CCn2c(C(F)(F)F)ccc2C12CCN(C(=O)c1ccc(S(=O)(=O)C3CC3)cc1)CC2 [Compound 257] | ≤ 2000
56 | COc1cc(C(=O)N2CCC3(CC2)c2ccc(C(=O)C(F)(F)F)n2CCN3C)ccc1C(C)(C)C [Compound 423] | ≤ 2000
57 | COCCN1CCn2c(C(F)(F)F)ccc2C12CCN(C(=O)c1ccccc1OC(F)(F)F)CC2 [Compound 662] | ≤ 2000
58 | CC(C)Oc1ccc(C(=O)N2CCC3(CC2)c2ccc(C(=O)C4(C)CC4)n2CCN3C)c(F)c1 [Compound 445] | ≤ 2000
59 | CC(=O)c1ccc2n1CC(C)(C)NC21CCN(C(=O)c2ccc(OC(C)C)c(C)c2)CC1 [Compound 418] | ≤ 2000
60 | CN1CCn2c(C(F)(F)F)ccc2C12CCN(C(=O)c1ccc(-c3ccccc3)cc1)CC2 [Compound 659] | > 5000
61 | COc1ccc(C(=O)N2CCC3(CC2)c2ccc(C(=O)C4(C)CC4)n2CCN3C)cc1Cl [Compound 493] | ≤ 2000
62 | CCC(CC)(CC)c1ccc(C(=O)N2CCC3(CC2)c2ccc(C(C)=O)n2CCN3C)cc1 [Compound 511] | > 5000
63 | Cc1cc(C(=O)N2CCC3(CC2)NC(C)(C)Cn2cc(F)c(F)c23)ccc1OC(C)C [Compound 256] | > 5000
64 | CC(=O)c1ccc2n1CCN(C)C21CCN(C(=O)c2ccc(COCCC(F)(F)F)cc2)CC1 [Compound 623] | ≤ 2000
65 | CC(C)CCOc1ccc(C(=O)N2CCC3(CC2)NC(C)(C)Cn2cc(F)c(F)c23)cc1 [Compound 79] | > 5000
66 | Cc1cc(C(=O)N2CCC3(CC2)NCCn2c(C(F)(F)F)ccc23)ccc1OC(C)C [Compound 356] | ≤ 2000
67 | Cc1cc(C(=O)N2CCC3(CC2)c2ccc(C(F)(F)F)n2CCN3C)ccc1S(=O)(=O)NC(C)C [Compound 450] | ≤ 2000
68 | Cc1cc(C(=O)N2CCC3(CC2)c2ccc(C(=O)C(F)(F)F)n2CCN3C)ccc1-c1ccnn1C [Compound 478] | > 5000
69 | CN1CCn2c(C(=O)C3CC3)ccc2C12CCN(C(=O)c1ccc(COCCC(F)(F)F)cc1)CC2 [Compound 627] | ≤ 2000
70 | CCS(=O)(=O)c1ccc(C(=O)N2CCC3(CC2)c2ccc(C(=O)C(C)(C)C)n2CCN3C)cc1C [Compound 482] | 2000 to 5000
71 | C[C@H]1Cn2c(C(=O)C(F)(F)F)ccc2C2(CCN(C(=O)c3ccc(S(=O)(=O)NC4CC4)cc3)CC2)N1C [Compound 669] | ≤ 2000
72 | CN1CCn2c(C(F)(F)F)ccc2C12CCN(C(=O)c1ccc(Oc3ccccc3)cc1)CC2 [Compound 155] | > 5000
73 | CC(C)Oc1ccc(C(=O)N2CCC3(CC2)c2ccc(C(F)(F)F)n2C[C@H](C)N3C)c(F)c1 [Compound 152] | ≤ 2000
74 | CC(C)Oc1ccc(C(=O)N2CCC3(CC2)c2ccc(C(=O)C(F)(F)F)n2CCN3C)cc1CO [Compound 160] | ≤ 2000
